{"source": "patent US20080234254A1", "about": "“Inhibitors of Histone Deacetylase” (UNIVERSITY OF LEEDS, priority 2004, published 2008)", "key": {"[1]": {"tested_on": "melanoma cancer cell lines", "assay": "Comparison test versus MS275: 7 melanoma cancer cell lines", "type": "cell-based", "conditions": "in 3 cell lines of 7 melanoma cancer cell lines screened", "description": "7 melanoma cancer cell lines were screened against both compound (4) and MS275."}, "UACC-62": {"tested_on": "UACC-62", "assay": "Screening against cancer cell lines: UACC-62 (Melanoma)", "type": "cell-based", "description": "Screening of Benzamide Derivatives Against Cancer Cell Lines Tables 1 and 2 tabulate by way of example the results obtained for compounds (4) and (6)."}}, "data": [{"smiles": "C=C(CN1CCc2ccccc2C1)c1ccc(C(=O)Nc2ccccc2N)cc1", "note": "[Compound (4), N-(2-Amino-phenyl)-4-[1-(3,4-dihydroisoquinolin-2(1H)-ylmethyl)vinyl]benzamide]", "values": [{"measurement": "potency over MS275", "setting": "[1]", "value": "> 2", "unit": "fold"}, {"measurement": "GI50", "setting": "UACC-62; Homo sapiens, Table 1", "value": 0.666, "unit": "µM"}, {"measurement": "CC50", "setting": "UACC-62; Homo sapiens, Table 1, read-out: LC50 (the source's name)", "value": 20.7, "unit": "µM"}, {"measurement": "TGI", "setting": "UACC-62; Table 1", "value": 2.9, "unit": "µM"}]}]}
